Reference: patent US20250270173A1, “PYRIDINE DERIVATIVES FOR TREATING PSYCHIATRIC DISORDERS” (GILGAMESH PHARMACEUTICALS, INC., priority 2022, published 2025)
Several values for one entry are separate records, joined by “and”; a condition that tells them apart may be missing. Equal entries are not always repeated. Where two headings read alike, the source gives them in different places.

What was measured:
5-HT2A receptor [1] = target: T1, 5-HT2A receptor (Homo sapiens (Human), UniProt P28223); test: FLIPR Ca2+ flux functional assay at 5-HT2A (HEK293); details: for 5-HT2A % Act @ Max Conc.: HEK293, at max concentration
5-HT2B receptor = 5-HT2B receptor (Homo sapiens (Human), UniProt P41595); test: FLIPR Ca2+ flux functional assay at 5-HT2B (HEK293); details: for 5-HT2B % Act @ Max Conc.: HEK293, at max concentration
5-HT2A receptor [2] = target: T1, 5-HT2A receptor; test: 5-HT2A receptor radioligand binding with [3H]ketanserin; details: read-out: Ki at 5-HT2A Receptor (nM) ([3H]ketanserin); HEK293 stable cell line, 1 nM [3H]ketanserin, 1 h, 25 °C
5-HT1A receptor = 5-HT1A receptor (Homo sapiens (Human), UniProt P08908); test: FLIPR Ca2+ flux functional assay at 5-HT1A (CHO cells); details: for 5-HT1A % Act @ Max Conc.: at max concentration
C57BL/6 mice = test: Automated (video tracking) head twitch response (HTR) assay in mice; assay type: in vivo; details: SC
Method: Disclosed compounds were tested for their ability to induce a head twitch response (HTR) in mice using an automated video tracking procedure, with the results summarized in Table 5. […] The phenyl Compound 44 was substantially more efficacious at inducing HTR than its pyridine counterpart Compound 29, in agreement with the generally lower maximal efficacy of the disclosed pyridine compounds for signaling through 5-HT2A receptors.
Animals. Adult male C57BL/6 mice aged 8-10 weeks (body weight 20-25 g) were used in these experiments. Animals were housed under controlled temperatures and 12-hour light/dark cycles (lights on between 07:00-19:00 h), with ad libitum food and water. The protocol was approved by the Institutional Animal Care and Use Committee at the study site. This study was carried out in strict accordance with the recommendations in the Guide for the Care and Use of Laboratory Animals of the National Institutes of Health. All efforts were made to minimize suffering.
Drugs and Drug Administration. […] was commercially obtained. Disclosed compounds were synthesized as described above. They were administered subcutaneously (SC) dissolved in saline (or saline acidified with 1-2 molar equivalents HCl to form the salt in situ for freebase compounds) at a volume of 10 mL/kg. Five doses were tested, with N=5-8 animals/group. Doses were calculated on the basis of the freebase, except for DOI, which was calculated based on the HCl salt.
Procedure. Mice were administered one dose of the drug and immediately placed into a small open field for behavioral observation. High-speed video of animals' behavior was captured continuously for 20 min. Video recordings were imported into an image processing software, which detects multiple points of interest on each animal's body, including the left and right ear. HTR events were defined as periodic deviations of ear locations from temporally averaged ear locations. Predefined thresholds for magnitude and frequency of location deviations were used to filter […] events from random head movements. The method was validated by comparing detected events with manual (human) observations and found to have an accuracy >95%. The total number of HTR events counted during the 20-min recording were determined for each animal at each dose.
Statistical Analysis. Analysis was performed using GraphPad Prism 9. Dose-response curves were fit via non-linear regression using the Gaussian 2020 function in Prism in order to determine the ED50 and Emax for each compound.

human 5-HT2C receptor = human 5-HT2C receptor (Homo sapiens (Human), UniProt P28335); test: FLIPR Ca2+ flux functional assay at 5-HT2C (Eurofins DiscoverX); assay type: cell-based; details: for 5-HT2C % Act @ Max Conc.: Ca2+ flux, human 5-HT2C, at max concentration
Method: Functional Assays at 5-HT2C Receptors. […] Probenecid was prepared fresh. Cells were loaded with dye prior to testing and incubated at 37° C. for 30-60 minutes. After dye loading, cells were removed from the incubator and 10 μL HBSS/20 mM Hepes was added. 3× vehicle was included in the assay buffer. Cells were incubated for 30 mins at room temperature in the dark to equilibrate plate temperature. Intermediate dilution of sample stocks was performed to generate 4× sample in assay buffer. Compound agonist activity was measured on a FLIPR Tetra (MDS). Calcium mobilization was monitored for 2 minutes and 10 μL 4× sample in HBSS/20 mM Hepes was added to the cells 5 seconds into the assay.

[3] = read-out: 5-HT2B EC50, Ca2+ flux, HEK293
[4] = read-out: 5-HT2A EC50, Ca2+ flux, HEK293

Chain of human 5-HT2C receptor (P28335 whole entry, looked up): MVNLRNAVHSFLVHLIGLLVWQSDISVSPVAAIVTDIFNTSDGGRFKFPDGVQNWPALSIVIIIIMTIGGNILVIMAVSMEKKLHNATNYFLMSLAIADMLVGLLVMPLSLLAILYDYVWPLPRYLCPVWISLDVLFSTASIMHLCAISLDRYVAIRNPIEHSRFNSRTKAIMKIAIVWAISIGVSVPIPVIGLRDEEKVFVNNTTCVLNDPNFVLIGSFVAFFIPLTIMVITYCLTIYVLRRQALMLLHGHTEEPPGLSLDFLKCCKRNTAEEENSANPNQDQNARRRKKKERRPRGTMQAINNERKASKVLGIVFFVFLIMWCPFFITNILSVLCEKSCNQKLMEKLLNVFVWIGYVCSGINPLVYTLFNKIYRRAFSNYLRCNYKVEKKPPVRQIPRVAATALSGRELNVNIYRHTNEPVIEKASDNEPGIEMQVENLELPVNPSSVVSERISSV
Chain of 5-HT2B receptor (P41595 whole entry, looked up): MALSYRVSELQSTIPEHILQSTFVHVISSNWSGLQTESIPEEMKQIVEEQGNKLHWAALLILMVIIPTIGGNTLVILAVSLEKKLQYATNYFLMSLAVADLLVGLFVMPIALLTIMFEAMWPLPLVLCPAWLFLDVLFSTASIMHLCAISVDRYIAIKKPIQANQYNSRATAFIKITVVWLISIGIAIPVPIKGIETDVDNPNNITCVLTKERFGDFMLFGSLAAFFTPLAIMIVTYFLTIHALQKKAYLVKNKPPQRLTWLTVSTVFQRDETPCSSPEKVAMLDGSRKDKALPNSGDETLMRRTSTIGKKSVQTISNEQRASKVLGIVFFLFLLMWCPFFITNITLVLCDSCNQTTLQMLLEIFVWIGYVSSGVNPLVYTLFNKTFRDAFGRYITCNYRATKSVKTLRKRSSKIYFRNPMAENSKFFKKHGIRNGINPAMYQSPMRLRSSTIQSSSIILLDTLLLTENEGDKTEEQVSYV

Structure (SMILES)	EC50 (5-HT2A receptor [1]) [µM]	5-HT2A % Act @ Max Conc. (5-HT2A receptor [1]; Ca2+ flux)	5-HT2B % Act @ Max Conc. (5-HT2B receptor; Ca2+ flux) [%]	5-HT1A % Act @ Max Conc. (5-HT1A receptor; Ca2+ flux, CHO cells) [%]	EC50 (5-HT2B receptor) [µM]	EC50 (5-HT1A receptor) [µM]	further results
CCC(N)Cc1nc(OC)c(C)cc1OC (stereo not drawn) [Compound 2, 1-(3,6-dimethoxy-5-methylpyridin-2-yl)butan-2-amine]	0.847	69.78%					
COc1cc(CCN)c(OC)cc1Br [Compound 2C-B, 2C-B, reference compound]		99.7%	73.3	47.8			EC50 (5-HT2B receptor; [3]): 0.02 µM; Ki (5-HT2A receptor [2]): 8.25 nM; EC50 (5-HT2A receptor [1]; [4]): 0.000478 µM; EC50 (5-HT1A receptor; read-out: 5-HT1A EC50, Ca2+ flux, CHO cells): 33.1 µM
CCc1cc(OC)c(CCN)cc1OC [Compound 2C-E, 2C-E, reference compound]		105%	66.2	17.9			EC50 (5-HT2B receptor; [3]): 0.0297 µM; Ki (5-HT2A receptor [2]): 16.7 nM; EC50 (5-HT2A receptor [1]; [4]): 0.000747 µM
CCC(N)Cc1nc(OC)c(Br)cc1OC (stereo not drawn) [Compound 3, 1-(5-bromo-3,6-dimethoxypyridin-2-yl)butan-2-amine]	0.136	70.17%					
COc1cc(C)c(OC)nc1CC(C)N (stereo not drawn) [Compound 5, 1-(3,6-dimethoxy-5-methylpyridin-2-yl)propan-2-amine]	0.03	104.25%	68.46	0.59	0.575	> 100	
COc1cc(Br)c(OC)nc1CC(C)N (stereo not drawn) [Compound 6, 1-(5-bromo-3,6-dimethoxypyridin-2-yl)propan-2-amine]	0.00213	95.6%	70.54	1.66	0.17	> 100	
COc1cc(C)c(OC)nc1CCN [Compound 8, 2-(3,6-dimethoxy-5-methylpyridin-2-yl)ethan-1-amine]	0.0658	85.81%	36.99	−0.62	1.01	> 100	
COc1cc(Br)c(OC)nc1CCN [Compound 9, 2-(5-bromo-3,6-dimethoxypyridin-2-yl)ethan-1-amine]	0.00981	96.84%	38.01	2.11	0.764	> 100	ED50 (C57BL/6 mice; Mus musculus, 20 min, 20 min recording, read-out: ED50): 1.38 mg/kg; Emax (HTR counts/20 min) (C57BL/6 mice): 49.65 HTR counts/20 min; # HTR/20 min at Most Efficacious Dose (C57BL/6 mice; at most efficacious dose): 45.75 HTR/20 min; Most Efficacious Dose; mg/kg (C57BL/6 mice; dose giving the most HTR): (3.2) mg/kg; EC50 (human 5-HT2C receptor): 0.0307 µM; 5-HT2C % Act @ Max Conc. (human 5-HT2C receptor): 95.94%
CCCCCc1cc(OC)c(CC(N)CC)cc1OC (stereo not drawn) [Compound 10, 1-(2,5-dimethoxy-4-pentylphenyl)butan-2-amine]		72% and 71.5%	0.211	33.1			5-HT2C % Act @ Max Conc. (human 5-HT2C receptor): 115%
CCCCCc1nc(OC)c(CC(N)CC)cc1OC (stereo not drawn) [Compound 11, 1-(2,5-dimethoxy-6-pentylpyridin-3-yl)butan-2-amine]	0.356	62.2%	6.92	197		19.2	
CCCCCc1nc(OC)c(CC(N)CC)nc1OC (stereo not drawn) [Compound 12, 1-(3,6-dimethoxy-5-pentylpyrazin-2-yl)butan-2-amine]	> 3.16	37.1%	7.05	170		33.3	
CCc1cc(OC)c(CC(N)CC)nc1OC (stereo not drawn) [Compound 21, 1-(5-ethyl-3,6-dimethoxypyridin-2-yl)butan-2-amine]	0.17	73.61%					
CCSc1cc(OC)c(CCN)nc1OC [Compound 22, 2-(5-(ethylthio)-3,6-dimethoxypyridin-2-yl)ethan-1-amine]	0.00409	94.73%	22.75	−1.51	0.215	> 100	
